Experimental data reported in patent US20230148418A1, “TYROSINASE ANTISENSE OLIGONUCLEOTIDES” (OLIPASS CORPORATION, priority 2017, published 2023).
[C(1O2)] = PNA monomer with modified cytosine nucleobase C(1O2); [A(5)] = PNA monomer with modified adenine nucleobase A(5); [G(6)] = PNA monomer with modified guanine nucleobase G(6); {Fethoc} = Fethoc N-terminal cap of the PNA; {NH2} = C-terminal amide of the PNA

Assays:
Format in all cases: cell-based
human TYR mRNA = assay: Nested qPCR for TYR mRNA in human primary epidermal melanocytes; conditions: 1 zM to 10 aM, 5 hours, significant at 1 zM and 10 aM
Description: “ASO 1” was evaluated by TYR nested qPCR for its ability to induce changes in the TYR mRNA level in human primary epidermal melanocytes as follows.
[Cell Culture & ASO Treatment] Primary epidermal melanocytes (Cat. Number PCS-200-013, ATCC) cells were maintained in Dermal Cell Basal Medium (Cat Number PCS-200-030, ATCC) supplemented with Adult Melanocyte Growth Kit Component (Cat. Number PCS-200-042, ATCC). Melanocytes grown in 60 mm culture dish containing 5 mL culture medium were treated with “ASO 1” at 0 zM (negative control), 1 zM, 100 zM, or 10 aM. (3 culture dishes per concentration)
[RNA Extraction & cDNA Synthesis by One-step PCR] Following an incubation with “ASO 1” for 5 hours, total RNA was extracted using “RNeasy Mini Kit” (Cat. Number 74106, Qiagen) according to the manufacturer's instructions. 200 ng of RNA template was subjected to a 25 μL reverse transcription reaction using Super Script® One-Step RT-PCR kit with Platinum® Taq polymerase (Cat. No. 10928-042, Invitrogen) against a set of exon-specific primers of [exon 1_forward(2): (5′→3′) CTCTTTGTCTGGATGCATT; and exon 5_reverse: (5′→3′) CTGTGGTAATCCTCTTTCT] according to the following cycle conditions specified: 50° C., for 30 min and 94° C. for 2 min, which was followed by 15 cycles of 30 sec at 94° C., 30 sec at 50° C., and 1 min at 72° C.
(§1) [Nested PCR Amplification] […]

mouse TYR mRNA = assay: Nested qPCR for TYR mRNA in B16F10 mouse melanoma cells; conditions: 1 to 1,000 aM, 5 hours, normalized to no treatment, significant
Description: “ASO 1M” was evaluated by TYR nested qPCR for its ability to induce changes in the mouse TYR mRNA level in B16F10 cells as described below.
[Cell Culture & ASO Treatment] B16F10 cells grown in 60 mm culture dish containing 5 mL DMEM were treated with “ASO 1M” at 0 (negative control), 1, 10,100 or 1000 aM. (2 culture dishes per dose)
[RNA Extraction & cDNA Synthesis by One-step PCR] Following an incubation with “ASO 1M” for 5 hours, total RNA was extracted from cells using “Universal RNA Extraction Kit” (Cat. No. 9767, Takara) according to the manufacturer's instructions. 200 ng of RNA template were used for a 25 μl reverse transcription reaction using One Step RT-PCR kit (Invitrogen, USA) against a set of exon specific primers of [exon 1_forward: (5′→3′) GTAAGTTTGGATTTGGGG; and exon 4_reverse: (5′→3′) AGAGCGGTATGAAAGGAA] according to the following cycle conditions: 50° C. for 30 min and 94° C. for 2 min, followed by 15 cycles of 30 sec at 94° C., 30 sec at 52° C., and 40 sec at. 72° C.
[Nested qPCR Amplification] The cDNA solutions were diluted by 100 times, and 1 μl of each diluted PCR product was subjected to a 20 μl Real-Time PCR reaction with a Taqman probe set spanning the junction of exon 2 and exon 3 (Cat. No. Mm00495818_m1, Thermo Fisher Scientific) according to the following cycle conditions: 95° C. for 3 min followed by 30 cycles 10 sec at 95° C., and 30 sec at 60° C. […]

mouse TYR pre-mRNA = assay: Exon skipping by nested PCR in B16F10 mouse melanoma cells; conditions: 1 to 1,000 aM, 5 hours, untreated cells gave full-length and exons 2-3 skipped bands
Description: [Cell Culture & ASO Treatment] B16F10 mouse melanoma cells (Cat. Number CRL-6475, ATCC) were maintained in DMEM (Dulbecco's modified Eagle's essential minimum medium) supplemented with 10% FBS, 1% streptomycin/penicillin, and 0.01 mg/ml bovine insulin. B16F10 cells grown in 60 mm culture dish containing 5 mL DMEM were incubated for 5 hours with “ASO 1M” at 0 (negative control), 1, 10,100 or 1000 aM.
[RNA Extraction & cDNA Synthesis by One-step PCR] Following an incubation for 5 hours, total RNA was extracted using “Universal RNA Extraction Kit” (Cat. Number 9767, Takara) according to the manufacturer's instructions. 200 ng of RNA template was used for a 25 μl reverse transcription reaction using Super Script® One-Step RT-PCR kit with Platinum® Taq polymerase (Cat. No. 10928-042, Invitrogen) against a set of exon-specific primers of [exon1_forward: (5′→3′) GTAAGTTTGGATTTGGGG; and exon 4_reverse: (5′→3′) AGAGC-GGTATGAAAGGAA] according to the following cycle conditions: 50° C. for 30 min and 94° C. for 2 min, followed by 15 cycles of 30 sec at 94° C. 30 sec at 52° C. and 40 sec at 72° C.
as §1
[Identification of Exon Skipping Products] […] The hands of target size were collected and analyzed by Sanger Sequencing.

TYR protein = TYR protein expression by western blot in B16F10 mouse melanoma cells; conditions: 10 zM to 10 aM, 24 hours
Description: “ASO 1M” was evaluated for its ability to down-regulate the TYR protein expression in B16F10 mouse melanoma cells as described below.
B16F10 cells grown in 60 mm culture dish containing 5 mL DMEM were treated with “ASO 1M” at 0 zM (negative control), 10 zM, 100 zM, 1 aM or 10 aM. 24 hours later, cells were washed 2 times with cold PBS (phosphate buffered saline), and then subjected to lysis with 200 μl 1× cell lysis butler (Cat. No. 9803, Cell Signaling Tech) supplemented with 1× protease inhibitors cocktail (Cat. No. P8340, Sigma). 200 μl of each lysate in 1.5 mL e-tube was mixed with […] 5× sample buffer, and boiled at 100° C. for 5 min. 20 μl of the lysate was subjected to electrophoretic separation on a 4-15% gradient TGX gel (Cat No. 456-1086, Bio-Rad), and protein transfer on a 0.45 μm PVDF membrane. The membrane was probed with an anti-TYR antibody (Cat. No. 9319, Cell Signaling Tech) and anti-β-actin antibody (Cat. No. a3845, Sigma).

Row | Substance | Decrease of full-length TYR mRNA level (human TYR mRNA) | Decrease of full-length TYR mRNA level (mouse TYR mRNA) | Exon skipping: PCR products by electrophoresis (mouse TYR pre-mRNA) | Band intensity of TYR expression versus negative control (TYR protein)
1 | Fathoc-CA(5)G-ACA(5)-ATC(1O2)-TG(6)T-A(5)-NH2 (CAGACAATCTGTA; all peptide nucleic acid (PNA), [A(5)] at 2, 6, 13, [C(1O2)] at 9, [G(6)] at 11, 5' {Fethoc}, 3' {NH2}; further chemistry not given here) [ASO 1, 13-mer PNA derivative targeting the 3′ splice site of exon 2 in the human TYR pre-mRNA] | ~30% | – | – | –
2 | Fethoc-CA(5)A-A(5)TG-A(5)TC(1O2)-TG(6)T-G-NH2 (CAAATGATCTGTG; all peptide nucleic acid (PNA), [A(5)] at 2, 4, 7, [C(1O2)] at 9, [G(6)] at 11, 5' {Fethoc}, 3' {NH2}; further chemistry not given here) [ASO 1M, 13-mer PNA derivative targeting the 3′ splice site of exon 2 in the mouse TYR pre-mRNA; surrogate for ASO 1] | – | ~40% | yielded only the splice variant TYR mRNA lacking exons 2 and 3 | considerably weaker
